Here are results for 11 molecules from ChEMBL document CHEMBL1201862, “PubChem BioAssay data set” (2004).

Among the test systems are CCRF-CEM; EKVX; NCI-H460; ACHN; UACC-62; SN12C; HCT-15; NCI-H23; SF-539; M14; SNB-75; U-251; LOX IMVI; MOLT-4; NCI-H522; SF-295; OVCAR-4; OVCAR-8; SW-620; A549.
Holding throughout (assay): DTP human tumour cell line panel, 48 h

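Each compound was tested at five concentrations against cells in 96-well plates for 48 hours. GI50 = concentration required for 50% inhibition of growth.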 Active and inactive are the calls of the source. No stated cut-off is given here; in the data, active = GI50 up to about 1.1 µM and inactive = higher.

For the molecule `CCC(=O)NC(OCC1(CC)COC1)(C(F)(F)F)C(F)(F)F`, the GI50 in the assay with CCRF-CEM, in the assay with EKVX, in the assay on NCI-H460, in the assay on ACHN, in the assay on UACC-62 and in the assay on SN12C was > 100 µM (inactive) throughout. Moreover, the GI50 is greater than 100 µM with HCT-15; > 100 µM (inactive) with NCI-H23; > 100 µM (inactive) in the assay on SF-539; > 100 µM (inactive) with M14; > 100 µM (inactive) with SNB-75; > 100 µM (inactive) with U-251. In addition, the GI50 in the assay with LOX IMVI, in the assay with MOLT-4 and in the assay with NCI-H522 was > 100 µM (inactive) each time.

Consider `Clc1ccc(CCc2ccncn2)c(Cl)c1`, for which the GI50 is 9.68 µM (inactive) in the assay with EKVX; > 100 µM (inactive) in the assay on NCI-H460; > 100 µM (inactive) in the assay on ACHN; 61.4 µM (inactive) with SF-295; > 100 µM (inactive) in the assay on OVCAR-4; 53.2 µM (inactive) in the assay with UACC-62. For the same molecule, the GI50 with SN12C is > 100 µM (inactive); in the assay with HCT-15, 79.6 µM; in the assay on OVCAR-8, 97.3 µM (inactive); with NCI-H23, 49.3 µM (inactive); in the assay on SW-620, > 100 µM (inactive); in the assay with SF-539, > 100 µM (inactive). Moreover, the GI50 in the assay with M14 was > 100 µM (inactive); with SNB-75 it was 68.5 µM (inactive); with A549 it was > 100 µM (inactive); with U-251, 41.5 µM (inactive); in the assay with LOX IMVI, > 100 µM (inactive); in the assay with MOLT-4, 29.3 µM (inactive). Also, the GI50 in the assay on NCI-H522 is 37.7 µM (inactive).

Turning to `CC1=NN(C(=O)c2ccc(Cl)cc2)C(=O)C1/N=N/c1ccc(S(=O)(=O)Nc2ncccn2)cc1` (stereo unspecified), the GI50 with EKVX, in the assay on NCI-H460, in the assay with ACHN, in the assay with SF-295, with OVCAR-4 and in the assay with UACC-62 was > 100 µM (inactive) in each case. Further, the GI50 is > 100 µM (inactive) in the assay with SN12C; greater than 100 µM with HCT-15; > 100 µM (inactive) in the assay on OVCAR-8; > 100 µM (inactive) in the assay on NCI-H23; > 100 µM (inactive) with SW-620; > 100 µM (inactive) in the assay on SF-539. Also, the GI50 with M14, with SNB-75, in the assay with A549, in the assay with U-251, in the assay on LOX IMVI and with MOLT-4 was > 100 µM (inactive) in each case. Further, in the assay with NCI-H522, the GI50 is > 100 µM (inactive).

With `CN1C(=O)CN2C(Cl)(Cl)C2(c2ccccc2)c2cc(Cl)ccc21` (stereo unspecified), the GI50 in the assay on CCRF-CEM is 53.7 µM (inactive); in the assay on EKVX, 65.8 µM (inactive); in the assay with NCI-H460, 96.2 µM (inactive); with ACHN, > 100 µM (inactive); in the assay with SF-295, 27 µM (inactive); with OVCAR-4, > 100 µM (inactive). Also, the GI50 in the assay with UACC-62 is > 100 µM (inactive); in the assay with SN12C, > 100 µM (inactive); in the assay with HCT-15 it was greater than 100 µM; in the assay with OVCAR-8 it was > 100 µM (inactive); in the assay on NCI-H23, 89.1 µM (inactive); in the assay with SW-620, > 100 µM (inactive). The GI50 in the assay with M14 was > 100 µM (inactive); in the assay on U-251 it was > 100 µM (inactive); with LOX IMVI, > 100 µM (inactive); with MOLT-4, 26.9 µM (inactive); in the assay with NCI-H522, 31.3 µM (inactive).

As for `Cc1c(N2C(=O)CS(=O)(=O)C2c2cccc(Oc3ccccc3)c2)c(=O)n(-c2ccccc2)n1C` (stereo unspecified), the GI50 in the assay with CCRF-CEM was 45.9 µM (inactive); in the assay on EKVX it was 46.7 µM (inactive); in the assay with NCI-H460, 37.2 µM (inactive); with ACHN it was > 100 µM (inactive); in the assay with SF-295 it was 84.9 µM (inactive); in the assay on OVCAR-4, 14.6 µM (inactive). Also, the GI50 in the assay on UACC-62 was 66.2 µM (inactive); in the assay with SN12C it was 40.5 µM (inactive); with HCT-15 it was 61.5 µM; in the assay with OVCAR-8 it was 57.3 µM (inactive); with NCI-H23, > 100 µM (inactive); in the assay with SW-620, > 100 µM (inactive). The GI50 in the assay with SF-539 was > 100 µM (inactive); with M14, 23.7 µM (inactive); in the assay on A549, 71.8 µM (inactive); in the assay with U-251, > 100 µM (inactive); in the assay on LOX IMVI, 47.6 µM (inactive); with MOLT-4, 20.5 µM (inactive). In the assay with NCI-H522, the GI50 is 26.1 µM (inactive).

For the molecule `COc1ccc2[nH]c(Cl)c(/C=C3/C(=O)Nc4cc(C)c(OC)cc43)c2c1`, the GI50 was 3.43 µM (inactive) with CCRF-CEM; 9.53 µM (inactive) in the assay with EKVX; 3.36 µM (inactive) in the assay on NCI-H460; 9.53 µM (inactive) in the assay on ACHN; 1.98 µM (inactive) in the assay on SF-295; 3.55 µM (inactive) in the assay on UACC-62. Also, the GI50 was 7.43 µM (inactive) in the assay on SN12C; 2.91 µM in the assay on HCT-15; 7.71 µM (inactive) with OVCAR-8; 5.11 µM (inactive) in the assay on NCI-H23; 4.21 µM (inactive) in the assay on SW-620; 0.723 µM (active) in the assay on SF-539. The GI50 in the assay on M14 is 3.98 µM (inactive); with SNB-75, 10.8 µM (inactive); in the assay on A549 it was 5.26 µM (inactive); in the assay on U-251, 4.88 µM (inactive); with LOX IMVI, 5.3 µM (inactive); with MOLT-4, 4.32 µM (inactive). Also, the GI50 in the assay on NCI-H522 was 2.9 µM (inactive).

On to `C1#Cc2ccccc2OCCOc2ccccc2C#Cc2ccccc2OCCOc2ccccc21`, for which the GI50 with CCRF-CEM was 18 µM (inactive); in the assay on EKVX, 26.5 µM (inactive); with NCI-H460, 24.9 µM (inactive); in the assay with ACHN, 15 µM (inactive); in the assay on SF-295, 21.6 µM (inactive); in the assay with OVCAR-4 it was 10.9 µM (inactive). The GI50 with UACC-62 is > 100 µM (inactive); in the assay with SN12C, 30.7 µM (inactive); in the assay on HCT-15 it was greater than 100 µM; in the assay on OVCAR-8, 13.8 µM (inactive); in the assay on NCI-H23, 16.9 µM (inactive); in the assay on SW-620, 34 µM (inactive). Besides, the GI50 in the assay on M14 was 30.8 µM (inactive); in the assay on A549, 25.2 µM (inactive); with U-251, 12.5 µM (inactive); in the assay on LOX IMVI, 16 µM (inactive); in the assay on MOLT-4, 16.2 µM (inactive); with NCI-H522 it was 20.7 µM (inactive).

As for `CC(=O)OCC1=C(COC(C)=O)C(=O)c2c(O)ccc(O)c2C1=O`, the GI50 in the assay with CCRF-CEM is 2.45 µM (inactive); with EKVX it was 15.1 µM (inactive); in the assay on ACHN, 10.2 µM (inactive); in the assay on SF-295 it was 13.4 µM (inactive); in the assay on OVCAR-4, 10.8 µM (inactive); with UACC-62, 5.56 µM (inactive). For the same molecule, the GI50 was 10.4 µM (inactive) in the assay on SN12C; 10.4 µM in the assay on HCT-15; 10.2 µM (inactive) in the assay with OVCAR-8; 12.1 µM (inactive) in the assay on NCI-H23; 3.21 µM (inactive) in the assay with SW-620; 6.34 µM (inactive) in the assay on SF-539. The GI50 was 5.3 µM (inactive) with M14; 16.1 µM (inactive) in the assay on SNB-75; 17.4 µM (inactive) in the assay with A549; 13.1 µM (inactive) in the assay on U-251; 1.37 µM (inactive) with MOLT-4; 1.55 µM (inactive) in the assay on NCI-H522.

For the molecule `O=c1cnn(CCOCP(=O)(O)O)c(=O)[nH]1`, the GI50 with CCRF-CEM, in the assay with EKVX, in the assay with NCI-H460, in the assay on ACHN, with SN12C and with OVCAR-8 was > 100 µM (inactive) in each case. For the same molecule, the GI50 in the assay with NCI-H23, in the assay with SW-620, with SF-539, with M14, in the assay with SNB-75 and with A549 was > 100 µM (inactive) in each case. Besides, the GI50 in the assay with U-251, in the assay on LOX IMVI, in the assay with MOLT-4 and with NCI-H522 was > 100 µM (inactive) each time.

Consider `COc1ccc(CC/N=C2\CCC(C(=O)NCCc3ccc(OC)c(OC)c3)N2)cc1OC` (stereo unspecified), for which the GI50 with CCRF-CEM, in the assay on EKVX, in the assay with NCI-H460, in the assay on ACHN, in the assay with SF-295 and with OVCAR-4 was > 100 µM (inactive) throughout. The GI50 in the assay on UACC-62 is > 100 µM (inactive); in the assay on SN12C, > 100 µM (inactive); in the assay with HCT-15, greater than 100 µM; in the assay on OVCAR-8 it was > 100 µM (inactive); in the assay on NCI-H23 it was > 100 µM (inactive); with SW-620, > 100 µM (inactive). The GI50 in the assay with M14, in the assay with SNB-75, in the assay with A549, in the assay on U-251, in the assay on LOX IMVI and in the assay with MOLT-4 was > 100 µM (inactive) in each case. Moreover, the GI50 in the assay on NCI-H522 is > 100 µM (inactive).

Take `C/C=C1\NC(=O)[C@H]2CSSCCC=C[C@H](CC(=O)N[C@H](C(C)C)C(=O)N2)OC(=O)[C@H](C(C)C)NC1=O`: the GI50 in the assay on CCRF-CEM was 0.000117 µM (active); in the assay with EKVX, 0.00102 µM (active); with NCI-H460, 0.00124 µM (active); in the assay with ACHN, 0.00452 µM (active); with SF-295, 0.000117 µM (active); in the assay with OVCAR-4, 0.00201 µM (active). In addition, the GI50 was 0.000188 µM (active) in the assay on UACC-62; 0.000174 µM (active) in the assay on SN12C; 0.0331 µM in the assay on HCT-15; 0.000255 µM (active) in the assay with OVCAR-8; 0.000125 µM (active) with NCI-H23; 0.000153 µM (active) with SW-620. The GI50 is 6.98e-05 µM (active) in the assay with SF-539; 0.000299 µM (active) in the assay with M14; 0.000207 µM (active) with SNB-75; 0.000148 µM (active) in the assay on A549; 0.000134 µM (active) with MOLT-4.

Broadly, the GI50 is the concentration at which growth is held to half of that of the control.
